Data on 5 compounds can be found in US8304422B2, “Compositions and methods for inhibition of the JAK pathway” (Rigel Pharmaceuticals, Inc., priority 2007, dated 2012).

The test system of experiment [1] is BaF3 V617F cells; UKE-1. Kind of experiment: Proliferation Assay (Cell Titer-Glo; Example 7). The format is cell-based. Particulars: proliferation 72 hours, inhibit JAK2 activity, cell line (BaF3 V617F or UKE-1) not stated. In short, it runs like this: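 Proliferation IC50s reflect 72 h compound exposure at 37 °C, read by Cell Titer-Glo luminescence. Compound was serially diluted 3-fold from a 5 mM DMSO stock and added as a 2× solution; BaF3 V617F cells were grown in RPMI/10% FBS, UKE-1 in Iscove's DMEM with FBS, equine serum and hydrocortisone.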
(Cellular ATP, detected with luciferase, serves as a proxy for viable cell number.)

For experiment [2], the system named is Ramos B-Cell Line Stimulated with IL-4. As to the kind of experiment: Assay for Ramos B-Cell Line Stimulated with IL-4 (CD23 upregulation, FACS; Example 2). Particulars: human Ramos B cells, IL-4 50 units/mL for 20-24 hours, anti-CD23-PE. Type of experiment: cell-based. The procedure, abridged:
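Human Ramos B cells (5×10^4 per point, RPMI with 5% serum) preincubated 1 hour at 37° C with compound or DMSO, then stimulated with IL-4 at 50 units/mL final for 20-24 hours. CD23 upregulation measured by anti-CD23-PE staining and flow cytometry.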

The IC50 is the concentration that inhibits the measured activity by half. In the case of `N#Cc1ccc(Nc2ncc(F)c(Nc3ccc(CNS(=O)(=O)C4CC4)cc3)n2)cc1` [II-29, N2-(4-cyano)phenyl-N4-(4-cyclopropylsulfonylaminomethyl)phenyl-5-fluoro-2,4-pyrimidinediamine], the concentration for half-maximal inhibition (IC50) in experiment [1] was 12500 nM; in experiment [2], 78.6 nM.
The like results for `CCN1CCN(c2ccc(Nc3ncc(C)c(Nc4cccc(CNS(=O)(=O)C5CC5)c4)n3)cc2C)CC1` [II-12, N4-(3-cyclopropylsulfonylaminomethyl)phenyl-N2-[4-(4-ethylpiperazino)-3-methyl]phenyl-5-methyl-2,4-pyrimidinediamine] were, in that order, 130 nM and 101 nM.
For `Cc1cc(C)cc(Nc2ncc(C)c(Nc3ccc(CNS(=O)(=O)C4CC4)cc3)n2)c1` [II-7, N4-(4-cyclopropylsulfonylaminomethyl)phenyl-N2-(3,5-dimethyl)phenyl-5-methyl-2,4-pyrimidinediamine] the same measures were 688 nM and 44.9 nM.
For `Cc1cnc(Nc2ccc(C3CCN(C)CC3)cc2)nc1Nc1ccc2c(c1)C(NS(C)(=O)=O)CC2` (racemic) [V-2, (+/−)-5-Methyl-N2-[4-(1-methyl-4-piperidinyl)pheny]-N4-[1-(methylsulfonyl)aminoindan-6-yl]-2,4-pyrimidinediamine] the same measures were 807 nM and 1220 nM.
`Cc1cc(C)cc(Nc2ncc(C)c(Nc3cccc(CNS(=O)(=O)C4CC4)c3)n2)c1` [II-11, N4-(3-cyclopropylsulfonylaminomethyl)phenyl-N2-(3,5-dimethyl)phenyl-5-methyl-2,4-pyrimidinediamine]: the IC50 in experiment [1] was 2800 nM; in experiment [2], 254 nM.
